Measured values as given in patent US20070254932A1, “Drugs for Treating Duplication of Hypertension With Hyperuricemia and/or Hypercholesterolemia” (priority 2004, published 2007).

Tests used:
[1] = system: SHR (Spontaneously hypertensive rat); experiment: Systolic blood pressure of SHR by tail cuff method; assay type: in vivo; settings: 5 hours after administration, HCTZ 10 mg/kg, pratosartan 3 mg/kg, mean ± SD, in mmHg (unit assumed); for systolic blood pressure level, Day 1: before drug 220-222
Method: The systolic blood pressure level of male 20 weeks old SHR (Spontaneously hypertensive rat, SPF grade) was measured by tail cuff methods, and animals were randomized into 4 groups to balance the systolic blood pressure level among groups. 0.5% methylcellulose (MC) or drugs suspended in 0.5% MC were administered for 28 days, and systolic blood pressure levels after 5 hours of drug administration were measured at day 1, 7, 14 and 28. In table 3 , experimental groups, subject substances, doses, and the measured blood pressure levels (mean±standard deviation) were shown in table 4. Further, the subject substances were hydrochlorothiazide (HCTZ), pratosartan, and co-administration of HCTZ and pratosartan. The dose of HCTZ and pratosartan were 10 mg/kg and 3 mg/kg, respectively, and the dosage volume was 2 mL/kg in each case.

[2] = system: male 6 weeks old SD rats; experiment: Uricosuric action estimated by delayed disappearance of blood phenol red; assay type: in vivo, rat; settings: for The enhance rate of uric acid excretion (%): phenol red 75 mg/kg i.v. 3 h later, serum 1 h after, control group = 100%, mean ± SD
Method: The uricosuric action is estimated by the delayed disappearance of blood phenol red level as a marker. Namely, male 6 weeks old SD rats were orally administered 0.5% methylcellulose (MC) or pratosartan (30 mg/kg or 100 mg/kg), and after three hours, phenol red solution (75 mg/kg) was intravenously adirninstered. One hour after phenol red administration, blood sample was collected from abdominal aorta under ether anesthesia, and the amount of phenol red in serum was determined. The amount of phenol red level in control group was taken as 100%, and the delayed rate of phenol red disappearance from blood in pratosartan treated group was estimated as the enhance rate of uric acid excretion (%). In table 1, experimental groups, subject substances, doses and the enhance rates of uric acid excretion (mean±standard deviation).

[3] = system: patients with mild and moderate essential hypertension complicated with hyperuricemia; experiment: Serum uric acid level in hypertensive patients complicated with hyperuricemia; assay type: in vivo, human; settings: 17 patients, 40 to 160 mg/day
Method: Studies were carried out intended for mild and moderate essential hypertension. 17 patients complicated with hyperuricemia were administered pratosartan, and serum uric acid levels (mg/dL) before drug administration and the last day during administration were determined. Further, the dose of from 40 to 160 mg/day was administered every four weeks by degrees if the hypotensive action was insufficient.

[4] = system: patients with mild or moderate essential hypertension; experiment: Serum cholesterol level in patients with essential hypertension; assay type: in vivo, human
Method: 107 patients with mild or moderate essential hypertension were administered at dose of from 40 to 160 mg/day was administered every four weeks by degrees if the hypotensive action was insufficient. Serum cholesterol level before pratosartan administration was compared with that of the last day during pratosartan administration in each patient. Also, a part of patients were other co-administered pratosartan and conventionally known hypolipidemic drugs. General names of co-administered drugs, doses and number of patients were as follows. Namely, the list was pravastatin (10 mg/day, 3 patients), simvastatin (5 mg/day, 3 patients), cerivastatin (0.15 mg/day, 2 patients), atorvastatin (5 mg/day, 1 patients), fenofibrate (150 mg/day, 1 patient) and probucol (500 mg/day, 1 patient). The results when the patients were classified in the presence and absence of other co-administered drugs, were shown in table 6 and 7. The result in the presence of co-administered drugs was shown in table 6, and the result in the absence of co-administered drug was shown in […]. Further, data were shown mean±standard deviation.

Compound | systolic blood pressure level, Day 1 [1] | systolic blood pressure level, Day 7 [1] | systolic blood pressure level, Day 14 [1] | systolic blood pressure level, Day 28 [1] | The enhance rate of uric acid excretion (%) ([2]; 30 mg/kg oral) | The enhance rate of uric acid excretion (%) ([2]; 100 mg/kg oral) | excretion of uric acid ([2]; SD rats, 30 or 100 mg/kg oral) | Serum uric acid level, the last day during administration ([3]; before drug administration 8.0 ± 1.1) | Serum uric acid level, difference ([3]; last day during administration versus before drug administration) | Serum cholesterol level, the last day during administration ([4]; 12 patients with co-administered hypolipidemic drugs, before drug administration 250.25 ± 45.16) | Serum cholesterol level, difference ([4]; 12 patients with co-administered hypolipidemic drugs, paired t-test P < 0.05) | Serum cholesterol level, the last day during administration ([4]; 95 patients without co-administered drug, before drug administration 206.28 ± 39.81) | Serum cholesterol level, difference ([4]; 95 patients without co-administered drug, paired t-test P < 0.01) | Serum cholesterol level, the last day during administration ([4]; all 107 patients, 40 to 160 mg/day, before drug administration 211.2 ± 42.6) | Serum cholesterol level, difference ([4]; all 107 patients, 40 to 160 mg/day, paired t-test P < 0.0001)
NS(=O)(=O)c1cc2c(cc1Cl)NCNS2(=O)=O [HCTZ, hydrochlorothiazide, reference compound] | 220 ± 2 | 219 ± 3 | 219 ± 4 | 214 ± 2 | – | – | – | – | – | – | – | – | – | – | –
CCCc1nc2c(n1Cc1ccc(-c3ccccc3-c3nnn[nH]3)cc1)C(=O)CCCC2 [pratosartan, 2-propyl-3-{[2′-(1H-tetrazole-5-yl)biphenyl-4-yl]methyl}-5,6,7,8-tetrahydrocyclohepta imidazole-4-(3H)-one] | 206 ± 2 | 190 ± 3 | 190 ± 1 | 189 ± 1 | 105 ± 10% | 172 ± 17% | enhance the excretion of uric acid | 7.4 ± 1.0 mg/dL | -0.7 ± 1.3 mg/dL | 214.58 ± 37.31 mg/dL | -35.67 ± 41.49 mg/dL | 197.66 ± 40.33 mg/dL | -8.62 ± 26.60 mg/dL | 199.6 ± 40.2 mg/dL | -11.7 ± 29.7 mg/dL
